Source: patent publication US9115169B2, “Method of treating tumors” (Lytix Biopharma AS, priority 2000, dated 2015)
In brackets after ≈: the same amount, converted by molar mass. Several values for one entry are separate records, joined by “and”; a condition that tells them apart may be missing. Equal values may be shown once. Read-outs that look alike come from different tables or passages of the source. Where a SMILES comes first, the peptide text is derived from it. Where no end group is shown, it is not given here. [ ]: non-standard residue; d: D form. The star is where a group is joined. OBn = c1ccc(CO*)cc1

Columns and labels:
[1] = tested on: Escherichia coli ATCC 25922; conditions: ATCC 25922
[2] = tested on: Escherichia coli ATCC 25922
[3] = tested on: MRSE ATCC 27626; conditions: ATCC 27626
[4] = tested on: Staphylococcus aureus ATCC 25923; conditions: ATCC 25923
[5] = tested on: Staphylococcus aureus ATCC 25923

| MIC MRSE [3] [µg/mL] | MIC E. coli ([2]; Table 8, first column) [µg/mL] | MIC E. coli ([2]; Table 8, second column) | MIC S. aureus ([5]; Table 8, first column) [µg/mL] | MIC S. aureus ([5]; Table 8, second column) | Molecule | MBC E. coli [1] [µg/mL] | further results |
| --- | --- | --- | --- | --- | --- | --- | --- |
| – | – | – | – | – | N=C(N)NCCC[C@H](NC(=O)[C@H](CCCNC(=N)N)NC(=O)[C@@H](N)CCCNC(=N)N)C(=O)N[C@@H](Cc1c[nH]c2ccccc12)C(=O)N[C@@H](Cc1c[nH]c2ccccc12)C(=O)N[C@@H](Cc1c[nH]c2ccccc12)C(N)=O [RRRWWW] (H-RRRWWW-NH2) | 20 (≈ 19.2 µM) | – |
| 2.5 (≈ 3.15 µM) | – | – | – | – | N=C(N)NCCC[C@H](NC(=O)[C@H](Cc1c[nH]c2ccccc12)NC(=O)[C@@H](N)CCCNC(=N)N)C(=O)N[C@@H](Cc1c[nH]c2ccccc12)C(=O)OCc1ccccc1 [RWRW-OBzl] (H-RWRW-OBn) | – | MIC E. coli ([2]; ATCC 25922): 100 µg/mL (≈ 126 µM) |
| – | – | – | – | – | N=C(N)NCCC[C@H](NC(=O)[C@H](Cc1c[nH]c2ccccc12)NC(=O)[C@H](CCCNC(=N)N)NC(=O)[C@H](Cc1c[nH]c2ccccc12)NC(=O)[C@@H](N)CCCNC(=N)N)C(=O)N[C@@H](Cc1c[nH]c2ccccc12)C(N)=O [RWRWRW] (H-RWRWRW-NH2) | 20 (≈ 19.2 µM) | MBC S. aureus [4]: 10 µg/mL (≈ 9.58 µM) |
| 2.5 (≈ 3.15 µM) | – | – | – | – | N=C(N)NCCC[C@H](N)C(=O)N[C@@H](Cc1c[nH]c2ccccc12)C(=O)N[C@H](CCCNC(=N)N)C(=O)N[C@H](Cc1c[nH]c2ccccc12)C(=O)OCc1ccccc1 [RWrw-OBzl] (H-RW[dR][dW]-OBn) | – | MIC S. aureus ([5]; ATCC 25923): 5 µg/mL (≈ 6.31 µM) |
| – | – | – | – | – | N=C(N)NCCC[C@H](NC(=O)[C@H](Cc1c[nH]c2ccccc12)NC(=O)[C@H](CCCNC(=N)N)NC(=O)[C@@H](N)Cc1c[nH]c2ccccc12)C(=O)N[C@@H](Cc1c[nH]c2ccccc12)C(N)=O [WRWRW] (H-WRWRW-NH2) | 50 (≈ 56.3 µM) | MBC S. aureus [4]: 20 (20) μg/ml |
| – | – | – | – | – | N=C(N)NCCC[C@H](NC(=O)[C@H](CCCNC(=N)N)NC(=O)[C@H](CCCNC(=N)N)NC(=O)[C@H](Cc1c[nH]c2ccccc12)NC(=O)[C@@H](N)Cc1c[nH]c2ccccc12)C(=O)N[C@@H](Cc1c[nH]c2ccccc12)C(N)=O [WWRRRW] (H-WWRRRW-NH2) | 20 (≈ 19.2 µM) | MIC E. coli ([2]; ATCC 25922): 20 (20) μg/ml |
| 20 (≈ 44.4 µM) | – | – | – | – | N=C(N)NCCC[C@@H](N)C(=O)N[C@H](Cc1c[nH]c2ccccc12)C(=O)OCc1ccccc1 [rw-OBzl] (H-[dR]-[dW]-OBn) | – | MIC E. coli ([2]; ATCC 25922): >200 µg/mL |
| 10 (≈ 15.7 µM) | – | – | – | – | N=C(N)NCCC[C@H](NC(=O)[C@H](N)Cc1c[nH]c2ccccc12)C(=O)N[C@@H](Cc1c[nH]c2ccccc12)C(=O)OCc1ccccc1 [wRW-OBzl] (H-[dW]-Arg-Trp-OBn) | – | MIC S. aureus ([5]; ATCC 25923): 20 µg/mL (≈ 31.4 µM) |
| 5 (≈ 7.85 µM) | – | – | – | – | N=C(N)NCCC[C@@H](NC(=O)[C@H](N)Cc1c[nH]c2ccccc12)C(=O)N[C@H](Cc1c[nH]c2ccccc12)C(=O)OCc1ccccc1 [wrw-OBzl] (H-[dW]-[dR]-[dW]-OBn) | – | – |
| – | 20 | 18.0 μM/ml | 2.5 | 2.3 μM/ml | AWRWRA-NH2 Pmc+: hexapeptide amide having the Pmc group (also: Pmc group, position not given here) | – | – |
| – | 20 | 17.4 μM/ml and 18.0 μM/ml | 2.5 | 2.2 μM/ml and 2.3 μM/ml | RRAAWW-NH2 Pmc+: hexapeptide amide having the Pmc group; label printed twice, second probably RRAAWB (also: Pmc group, position not given here) | – | – |
| – | 50 | 45.0 μM/ml | 2.5 | 2.3 μM/ml | WRAAWR-NH2 Pmc+: hexapeptide amide having the Pmc group (also: Pmc group, position not given here) | – | – |
| – | 50 | 45.0 μM/ml | 5 | 4.5 μM/ml | WWAARR-NH2 Pmc+: hexapeptide amide having the Pmc group (also: Pmc group, position not given here) | – | – |
